Reference: patent publication US5129937A, “Pyridyloxypyrimidine derivatives, preparation process thereof, and herbicidal compositions containing the same as active ingredients” (Mitsui Toatsu Chemicals Incorporated, priority 1989, dated 1992)

Assays:
[1] = test system: ALS (acetolactate synthase); assay: ALS (Acetolactate Synthase) Inhibition Test, barnyardgrass enzyme; assay type: biochemical; conditions: enzymoreaction inhibition rate at 10 ppm (5 μg/0.5 ml)
Description: (§1) To determine the selectivity in enzyme level between crops and weeds, an ALS inhibition test was conducted using pea as a representative of broadleaf crops and barnyardgrass as a representative of gramineous weeds.
(§2) After seeds of pea and barnyardgrass were allowed to germinate at 25° C. for 8-14 days in a dark place, partially-purified suspensions (Suspensions A) of acetolactate syntase were separately obtained from seedlings in accordance with the method described in the literature, Plant Physiology, 75, 827-831. In a test tube, […], followed by the addition of 0.15 ml of a 20 mM K2 HPO4 solution and 0.25 ml of a reaction substrate medium which consisted of 40 mM of K2 HPO4, 40 mM of sodium pyruvate, 1 mM of TPP, 1 mM of MgCl2 and 20 μM of FAD so that 0.4 ml of a reaction solution (Solution B) was prepared. Added to 0.4 ml of Solution B was 0.1 ml of Suspension A. After the resultant mixture was shaken for 1 hour in a thermostat water bath controlled at 30° C., 50 μl of 6N sulfuric acid were added to terminate the reaction.
(§3) Next, the reaction-terminated liquid mixture was transferred into a thermostat water bath controlled at 60° C. and was heated for 15 minutes. Thereafter, 0.5 ml of a 0.5% creatine solution and 0.5 ml of a 5% alkaline α-naphthol solution were added, and the resultant mixture was maintained at 60° C. for 15 minutes. As a result, the test solution developed a pink-red color. After the above operation, the absorbance of the test solution at 525 nm was measured by a spectrophotometer (Absorbance 1 of Test Compound).
(§4) On the other hand, the absorbance (Absorbance 2 of Blank) of a solution obtained by subjecting a portion of Solution B, said portion being free of the test compound, to the above operation and the absorbance (Absorbance 3 of sulfuric acid terminated) of another solution obtained by subjecting another portion of Solution B, said portion containing 50 μl of 6N sulfuric acid as a test compound, were measured at the same time. […] [formula]

[2] = test system: ALS (acetolactate synthase); assay: ALS (Acetolactate Synthase) Inhibition Test, pea enzyme; assay type: biochemical; conditions: enzymoreaction inhibition rate at 10 ppm (5 μg/0.5 ml)
Description: as §1, §2, §3, §4

[3] = test system: Corn (Zea maize); assay: Upland Soil Application Test, crop injury; assay type: in vivo; conditions: 30 g ai/a; soil application before emergence, wettable powder; observed 30 days later
Description: (§5) Resin-made 1/2500-are pots were filled with the soil of an upland field. After they were fertilized, soybean, corn and cotton were seeded and 2-3 cm soil covering was applied. Seeds of redroot pigweed, morningglory (Ipomoea purpurea), common lambsquarters, barnyardgrass, green foxtail, large crabgrass, foxtail meadow and johnsongrass had been uniformly mixed with the soil. They were allowed to germinate in a green house. One day later (before emergence of weeds), a wettable powder prepared from a predetermined amount of each test compound in a similar manner to the method described in Formulation Example 1 was diluted with water and then sprayed evenly at an application rate equal to 10 l per are onto the surface of the soil by means of a pressure-operated ULV (ultra low volume) sprayer. Influence to the crops and weeds were observed 30 days later. The results are shown in Table 3, in which the degree of damages of each test plant and the degree of injury to each crop were determined by comparing the air-dried weights of the test plant and crop with those of the corresponding plant and crop in untreated pots and are shown in accordance with the following standard: […]

[4] = test system: Cotton (Gossypium indicum); assay: Upland Soil Application Test, crop injury; assay type: in vivo; conditions: 30 g ai/a; soil application before emergence, wettable powder; observed 30 days later
Description: as §5

[5] = test system: Soybean (Glycine max); assay: Upland Soil Application Test, crop injury; assay type: in vivo; conditions: 30 g ai/a; soil application before emergence, wettable powder; observed 30 days later
Description: as §5

[6] = test system: Barnyardgrass (Echinochloa crus-galli); assay: Upland Foliar Application Test; assay type: in vivo; conditions: 30 g ai/a; foliar application at 2-3 leaf stage, emulsion; observed on the 30th day
Description: (§6) Resin-made 1/10000-are pots were filled with the soil of an upland field. Redroot pigweed, morningglory (Ipomoea pupurea), common lambsquarters, foxtail meadow, johnsongrass, barnyardgrass, green foxtail, large crabgrass, soybean, corn and cotton were separately seeded and were allowed to germinate in a green house. When each plant grew to the stage of 2-3 leaves, an emulsion formulated from a predetermined amount of each test compound in a similar manner to the method described in Formulation Example 11 was diluted with water and then sprayed at a predetermined application rate by means of a pressure-operated ULV (ultra low volume) sprayer. The application rate was controlled at 5 l per are. Influence to the crops and weeds were observed on the 30th day after the spray of the herbicides. The results are shown in Table 4 in which the degree of damages of each test plant and the degree of injury to each crop are shown in a similar manner to Test 2.

[7] = test system: Common lambsquarters; assay: Upland Foliar Application Test; assay type: in vivo; conditions: 30 g ai/a; foliar application at 2-3 leaf stage, emulsion; observed on the 30th day
Description: as §6

[8] = test system: Crabgrass (Digitaria adsendens); assay: Upland Foliar Application Test; assay type: in vivo; conditions: 30 g ai/a; foliar application at 2-3 leaf stage, emulsion; observed on the 30th day
Description: as §6

[9] = test system: Foxtail (Setaria viridis); assay: Upland Foliar Application Test; assay type: in vivo; conditions: 30 g ai/a; foliar application at 2-3 leaf stage, emulsion; observed on the 30th day
Description: as §6

[10] = test system: Foxtail meadow; assay: Upland Foliar Application Test; assay type: in vivo; conditions: 30 g ai/a; foliar application at 2-3 leaf stage, emulsion; observed on the 30th day
Description: as §6

[11] = test system: Johnsongrass; assay: Upland Foliar Application Test; assay type: in vivo; conditions: 30 g ai/a; foliar application at 2-3 leaf stage, emulsion; observed on the 30th day
Description: as §6

[12] = test system: Redroot Pigweed; assay: Upland Foliar Application Test; assay type: in vivo; conditions: 30 g ai/a; foliar application at 2-3 leaf stage, emulsion; observed on the 30th day
Description: as §6

[13] = test system: Rice (Oryza sativa); assay: Submerged Soil Treatment Test (Pre-Emergence Treatment), crop injury; assay type: in vivo; conditions: 30 g ai/a, granule, transplanted rice, observed 30 days later
Description: (§7) 1/5000-are Wagner pots were filled with soil. Seeds or tubers of barnyardgrass, bulrush and Sagittaria pygmaea were seeded or planted under submerged condition. Two pairs of rice seedlings (2-3 leaf stage), which had been reared in advance, were transplanted to each pot and were allowed to germinate in a green house. Each pair consisted of two rice seedlings. On day later (before emergence of weeds), each pot was treated with a granule which had been prepared by processing a predetermined amount of the test composition in accordance with a similar method to the method described in Formulation Example 9. The state of emergence of weeds and the state of injury of rice were observed 30 days later. In the table, the degrees of damages of the test plants and the degrees of injury of rice are shown in a similar manner to Example 2.

[14] = test system: Arrowhead sp. (Sagittaria pygmaea); assay: Submerged Soil Treatment Test (Growth Stage Treatment); assay type: in vivo; conditions: 30 g ai/a, growth stage treatment (barnyardgrass two-leaf stage), granule, observed 30 days later
Description: as §7, with “allowed to grow in a” for “allowed to germinate in a”, “rice seedlings. When the barnyardgrass grew to the two-leaf stage, each pot” for “rice seedlings. On day later (before emergence of weeds), each pot”, “injury of the rice are” for “injury of rice are”

[15] = test system: Bulrush (Scirpus juncoides); assay: as above; assay type: in vivo; conditions: 30 g ai/a, growth stage treatment (barnyardgrass two-leaf stage), granule, observed 30 days later
Description: as §7, with “allowed to grow in a” for “allowed to germinate in a”, “rice seedlings. When the barnyardgrass grew to the two-leaf stage, each pot” for “rice seedlings. On day later (before emergence of weeds), each pot”, “injury of the rice are” for “injury of rice are”

Inhibition rate (%) Barnyardgrass [1] [%]	Inhibition rate (%) Pea [2] [%]	Structure (SMILES)	Crop injury Corn (Zea maize) [3]	Crop injury Cotton (Gossypium indicum) [4]	Crop injury Soybean (Glycine max) [5]	Herbicidal effects Barnyardgrass (Echinochloa crus-galli) [6]	Herbicidal effects Common lambquarters [7]	Herbicidal effects Crabgrass (Digitaria adsendens) [8]	Herbicidal effects Foxtail (Setaria viridis) [9]	Herbicidal effects Foxtail meadow [10]	Herbicidal effects Johnsongrass [11]	Herbicidal effects Redroot Pigweed [12]	Crop injury Rice (Oryza sativa) [13]	Herbicidal effects Arrowhead sp. (Sagittaria pygmaea) [14]	Herbicidal effects Bulrush (Scirpus juncoides) [15]
5	52	CCOC(=O)c1ncccc1Oc1nc(OC)cc(OC)n1 [A, reference compound]	5 (0-5 (Death))	5 (0-5 (Death))	5 (0-5 (Death))	5 (0-5 (Death))	4 (6-10 (Severe damages))	4 (6-10 (Severe damages))	5 (0-5 (Death))	5 (0-5 (Death))	5 (0-5 (Death))	4 (6-10 (Severe damages))	5 (0-5 (Death))	4 (6-10 (Severe damages))	4 (6-10 (Severe damages))
98	72	COc1cc(OC)nc(Oc2ccccc2C=O)n1 [B, reference compound]	5 (0-5 (Death))	5 (0-5 (Death))	5 (0-5 (Death))	4 (6-10 (Severe damages))	3 (11-40 (Medium damages))	4 (6-10 (Severe damages))	4 (6-10 (Severe damages))	4 (6-10 (Severe damages))	4 (6-10 (Severe damages))	3 (11-40 (Medium damages))	5 (0-5 (Death))	4 (6-10 (Severe damages))	5 (0-5 (Death))
100	3	COc1cc(OC)nc(Oc2cccnc2C=O)n1 [Compound No. 1, 4,6-dimethoxy-2-(2-formyl-3-pyridyloxy)pyrimidine]	0 (91-100 (No damages))	0 (91-100 (No damages))	0 (91-100 (No damages))	5 (0-5 (Death))	5 (0-5 (Death))	4 (6-10 (Severe damages))	5 (0-5 (Death))	5 (0-5 (Death))	5 (0-5 (Death))	5 (0-5 (Death))	1 (71-90 (Slight damages))	4 (6-10 (Severe damages))	5 (0-5 (Death))
81	0	COc1cc(OC)nc(Oc2cccnc2C(OC)OC)n1 [Compound No. 2, 3-(4.6-dimethoxy-2-pyrimidinyloxy)-2-pyridinecarboxaldehyde dimethylacetal]	0 (91-100 (No damages))	0 (91-100 (No damages))	0 (91-100 (No damages))	4 (6-10 (Severe damages))	4 (6-10 (Severe damages))	4 (6-10 (Severe damages))	4 (6-10 (Severe damages))	4 (6-10 (Severe damages))	5 (0-5 (Death))	5 (0-5 (Death))	0 (91-100 (No damages))	4 (6-10 (Severe damages))	4 (6-10 (Severe damages))
84	0	CCOC(OCC)c1ncccc1Oc1nc(OC)cc(OC)n1 [Compound No. 3, 3-(4,6-dimethoxy-2-pyrimidinyloxy)-2-pyridinecarboxaldehyde diethylacetal]	0 (91-100 (No damages))	0 (91-100 (No damages))	0 (91-100 (No damages))	5 (0-5 (Death))	5 (0-5 (Death))	5 (0-5 (Death))	5 (0-5 (Death))	5 (0-5 (Death))	5 (0-5 (Death))	5 (0-5 (Death))	0 (91-100 (No damages))	5 (0-5 (Death))	5 (0-5 (Death))
94	0	CCCCOC(OCCCC)c1ncccc1Oc1nc(OC)cc(OC)n1 [Compound No. 4]	0 (91-100 (No damages))	0 (91-100 (No damages))	0 (91-100 (No damages))	5 (0-5 (Death))	5 (0-5 (Death))	5 (0-5 (Death))	5 (0-5 (Death))	5 (0-5 (Death))	5 (0-5 (Death))	5 (0-5 (Death))	0 (91-100 (No damages))	4 (6-10 (Severe damages))	4 (6-10 (Severe damages))
